Among the data in US11884661B2, “3-substituted propionic acids as αV integrin inhibitors” (BRISTOL-MYERS SQUIBB COMPANY, priority 2016, dated 2024) are IC50 values, retold here.

Each structure is given as a SMILES string.

T1 sequence (P06756 31-992 limits assumed): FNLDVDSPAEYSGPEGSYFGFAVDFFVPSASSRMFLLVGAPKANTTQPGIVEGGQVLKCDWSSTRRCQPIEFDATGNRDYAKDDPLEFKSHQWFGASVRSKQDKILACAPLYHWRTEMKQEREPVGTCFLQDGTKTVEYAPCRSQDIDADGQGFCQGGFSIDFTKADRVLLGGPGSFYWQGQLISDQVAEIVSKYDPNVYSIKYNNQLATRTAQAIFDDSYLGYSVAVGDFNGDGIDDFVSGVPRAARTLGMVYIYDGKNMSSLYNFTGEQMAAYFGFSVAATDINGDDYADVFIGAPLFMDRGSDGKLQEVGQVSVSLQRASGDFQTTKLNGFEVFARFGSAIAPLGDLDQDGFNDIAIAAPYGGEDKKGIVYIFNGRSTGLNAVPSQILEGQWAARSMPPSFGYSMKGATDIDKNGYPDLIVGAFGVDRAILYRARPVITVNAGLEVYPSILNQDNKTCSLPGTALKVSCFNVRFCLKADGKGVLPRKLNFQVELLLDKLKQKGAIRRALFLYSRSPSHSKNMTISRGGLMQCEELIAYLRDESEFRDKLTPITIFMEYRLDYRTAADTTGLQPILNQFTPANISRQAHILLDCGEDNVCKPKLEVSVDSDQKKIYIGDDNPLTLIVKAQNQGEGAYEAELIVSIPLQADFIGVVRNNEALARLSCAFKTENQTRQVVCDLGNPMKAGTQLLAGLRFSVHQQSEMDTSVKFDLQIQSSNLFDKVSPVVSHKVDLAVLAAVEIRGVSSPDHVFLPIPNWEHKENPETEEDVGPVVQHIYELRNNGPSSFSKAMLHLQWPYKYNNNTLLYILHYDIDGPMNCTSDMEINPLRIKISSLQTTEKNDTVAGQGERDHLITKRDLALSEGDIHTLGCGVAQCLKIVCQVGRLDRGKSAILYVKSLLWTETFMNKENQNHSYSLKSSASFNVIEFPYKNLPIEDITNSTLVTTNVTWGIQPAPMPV
T1 sequence (P18564 22-707 limits assumed): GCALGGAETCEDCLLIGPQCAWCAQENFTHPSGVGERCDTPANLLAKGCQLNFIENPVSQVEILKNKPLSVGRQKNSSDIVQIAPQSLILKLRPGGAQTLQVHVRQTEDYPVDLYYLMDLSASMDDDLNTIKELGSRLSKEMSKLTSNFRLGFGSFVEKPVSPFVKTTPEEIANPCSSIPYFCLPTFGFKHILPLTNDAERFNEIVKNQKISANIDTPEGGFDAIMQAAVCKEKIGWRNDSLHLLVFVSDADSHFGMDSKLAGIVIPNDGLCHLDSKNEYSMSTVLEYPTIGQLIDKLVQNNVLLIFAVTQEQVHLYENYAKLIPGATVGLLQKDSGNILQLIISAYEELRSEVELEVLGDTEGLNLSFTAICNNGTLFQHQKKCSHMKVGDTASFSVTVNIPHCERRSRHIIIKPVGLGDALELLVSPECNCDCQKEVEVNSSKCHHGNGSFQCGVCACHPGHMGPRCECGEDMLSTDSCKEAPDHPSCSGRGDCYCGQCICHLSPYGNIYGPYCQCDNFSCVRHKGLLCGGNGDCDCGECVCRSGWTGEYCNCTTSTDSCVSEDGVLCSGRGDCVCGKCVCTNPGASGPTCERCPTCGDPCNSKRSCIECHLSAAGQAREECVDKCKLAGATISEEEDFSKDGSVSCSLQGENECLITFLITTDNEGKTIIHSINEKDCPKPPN

This experiment addresses T1, human αVβ6 (Homo sapiens, UniProt P06756+P18564).
T1 construct: purchased R & D systems 3817-AV
Description: human αVβ6 HTRF binding assay. The conditions noted are these: recombinant human αVβ6 integrin, FITC-conjugated fibronectin. The essentials:
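Biotinylated recombinant αVβ6 (1.25 nM final) incubated with FITC-fibronectin (5 nM) 1 h at RT, then streptavidin-terbium (0.625 nM) added and incubated overnight at RT in the dark before HTRF read. Buffer: 20 mM Tris pH 7.4, 1 mM MgCl2, 1 mM MnCl2, 0.01% Tween 20, 0.01% BSA.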
Take `COc1ccc(C(CC(=O)O)c2nc(CCCC3CCc4cccnc4N3)cs2)cc1F` (single isomer, unassigned) [Example 160, 3-(3-fluoro-4-methoxyphenyl)-3-(4-(3-(1,2,3,4-tetrahydro-1,8-naphthyridin-2-yl)propyl)thiazol-2-yl)propanoic acid]: the IC50 is 195 nM.
The same measure for `CCOc1ncc(C(CC(=O)O)c2nc(CCCCc3ccc4c(n3)NCCC4)cs2)cn1` (single isomer, unassigned) [Example 129, 3-(2-ethoxypyrimidin-5-yl)-3-(4-(4-(5,6,7,8-tetrahydro-1,8-naphthyridin-2-yl)butyl)thiazol-2-yl)propanoic acid]: 28 nM.
For the molecule `O=C(O)CC(c1cc(Cl)cc(Cl)c1)n1nccc1CCCc1ccc2c(n1)NCCC2` (racemic) [Example 75, (±)-3-(3,5-dichlorophenyl)-3-{5-[3-(5,6,7,8-tetrahydro-1,8-naphthyridin-2-yl)propyl]-1H-pyrazol-1-yl}propanoic acid], the IC50 stood at 28 nM.
For `COc1ccc(C(CC(=O)O)n2ccc(CCCc3ccc4c(n3)NCCC4)n2)nn1` (racemic) [Example 57, (±)-3-(6-Methoxypyridazin-3-yl)-3-(3-(3-(5,6,7,8-tetrahydro-1,8-naphthyridin-2-yl)propyl)-1H-pyrazol-1-yl)propanoic acid], the IC50 came to 51 nM.
For `CCCCOC(=O)NC(Cc1cnn(CCc2ccc3c(n2)NCCC3)c1)C(=O)O` (racemic) [Example 23, (±)-2-((Butoxycarbonyl)amino)-3-(1-(2-(5,6,7,8-tetrahydro-1,8-naphthyridin-2-yl)ethyl)-1H-pyrazol-4-yl)propanoic acid], the IC50 came to 1020 nM.
In the case of `COc1ccc(C(CC(=O)O)c2nc(CCCC3CCc4cccnc4N3)cs2)cn1` (single isomer, unassigned) [Example 157, 3-(6-methoxypyridin-3-yl)-3-(4-(3-(1,2,3,4-tetrahydro-1,8-naphthyridin-2-yl)propyl)thiazol-2-yl)propanoic acid], the concentration for half-maximal inhibition (IC50) is 27 nM.
On to `COc1ccc(C(CC(=O)O)n2ccc(CCCc3ccc4c(n3)NCCC4)n2)cc1F` (racemic) [Example 49, (±)-3-(3-Fluoro-4-methoxyphenyl)-3-(3-(3-(5,6,7,8-tetrahydro-1,8-naphthyridin-2-yl)propyl)-1H-pyrazol-1-yl)propanoic acid], for which the IC50 amounted to 24 nM.
In the case of `Cc1ncc(C(CC(=O)O)n2ccc(CCCc3ccc4c(n3)NCCCC4)n2)cn1` (single isomer, unassigned) [Example 97, 3-(2-methylpyrimidin-5-yl)-3-(3-(3-(6,7,8,9-tetrahydro-5H-pyrido[2,3-b]azepin-2-yl)propyl)-1H-pyrazol-1-yl)propanoic acid], the IC50 was determined as 45 nM.
The value for `Cc1cncc(C(CC(=O)O)n2ccc(CCCc3ccc4c(n3)NCCC4)n2)c1` (single isomer, unassigned) [Example 69, 3-(5-methylpyridin-3-yl)-3-{3-[3-(5,6,7,8-tetrahydro-1,8-naphthyridin-2-yl)propyl]-1H-pyrazol-1-yl}propanoic acid] was 15 nM.
Take `O=C(O)CC(c1cnc2ccccc2c1)n1ncc(CCCc2ccc3c(n2)NCCC3)n1` (single isomer, unassigned) [Example 174, 3-(quinolin-3-yl)-3-(4-(3-(5,6,7,8-tetrahydro-1,8-naphthyridin-2-yl)propyl)-2H-1,2,3-triazol-2-yl)propanoic acid]: the IC50 was 170 nM.
The value for `COc1ncc(C(CC(=O)O)c2nc(CCCCc3ccc4c(n3)NCCC4)cs2)cn1` (single isomer, unassigned) [Example 143, 3-(2-Methoxypyrimidin-5-yl)-3-(4-(4-(5,6,7,8-tetrahydro-1,8-naphthyridin-2-yl)butyl)thiazol-2-yl)propanoic acid] was 88 nM; that for `Cc1cncc(C(CC(=O)O)c2nc(CCCc3ccc4c(n3)NCCC4)cs2)c1` (single isomer, unassigned) [Example 151, 3-(5-methylpyridin-3-yl)-3-(4-(3-(5,6,7,8-tetrahydro-1,8-naphthyridin-2-yl)propyl)thiazol-2-yl)propanoic acid] was 2.6 nM; that for `COc1ccc([C@@H](CC(=O)O)c2cnn(CCCc3ccc4c(n3)NCCC4)c2)cn1` [Example 9, (R)-3-(6-Methoxypyridin-3-yl)-3-(1-(3-(5,6,7,8-tetrahydro-1,8-naphthyridin-2-yl)propyl)-1H-pyrazol-4-yl)propanoic acid] was 213 nM.
`COc1ncc([C@@H](CC(=O)O)n2ccc(CCCc3ccc4c(n3)NCCC4)n2)cn1` [Example 83, (R)-3-(2-methoxypyrimidin-5-yl)-3-(3-(3-(5,6,7,8-tetrahydro-1,8-naphthyridin-2-yl)propyl)-1H-pyrazol-1-yl)propanoic acid]: the IC50 turned out to be 310 nM.
On to `COc1ccc(C(CC(=O)O)c2cnn(CCCc3ccc4c(n3)NCCC4)c2)cc1F` (racemic) [Example 24, (±)-3-(3-Fluoro-4-methoxyphenyl)-3-(1-(3-(5,6,7,8-tetrahydro-1,8-naphthyridin-2-yl)propyl)-1H-pyrazol-4-yl)propanoic acid], for which the IC50 was found to be 117 nM.
The same measure for `CN(C)c1ccc(C(CC(=O)O)c2nc(CCCc3ccc4c(n3)NCCC4)cs2)cn1` (single isomer, unassigned) [Example 133, 3-(6-(dimethylamino)pyridin-3-yl)-3-(4-(3-(5,6,7,8-tetrahydro-1,8-naphthyridin-2-yl)propyl)thiazol-2-yl)propanoic acid]: 86 nM; for `Cc1ncc(C(CC(=O)O)n2nccc2CCCc2ccc3c(n2)NCCCC3)cn1` (racemic) [Example 99, (±)-3-(2-methylpyrimidin-5-yl)-3-(5-(3-(6,7,8,9-tetrahydro-5/Z-pyrido[2,3-b]azepin-2-yl)propyl)-1H-pyrazol-1-yl)propanoic acid]: 410 nM; for `COc1ccc(C(CC(=O)O)c2nc(CCCc3ccc4c(n3)NCCC4)cs2)cc1OC` (single isomer, unassigned) [Example 141, 3-(3,4-dimethoxyphenyl)-3-(4-(3-(5,6,7,8-tetrahydro-1,8-naphthyridin-2-yl)propyl)thiazol-2-yl)propanoic acid]: 2.9 nM.
In the case of `Cc1cc(C)n(C(CC(=O)O)c2nc(CCCc3ccc4c(n3)NCCC4)cs2)n1` (single isomer, unassigned) [Example 162, 3-(3,5-dimethyl-1H-pyrazol-1-yl)-3-(4-(3-(5,6,7,8-tetrahydro-1,8-naphthyridin-2-yl)propyl)thiazol-2-yl)propanoic acid], the IC50 was 71 nM.
On to `COc1ncc(C(CC(=O)O)n2nccc2CCC[C@@H]2CCc3cccnc3N2)cn1` (mixture of isomers) [Example 93, 3-(2-methoxypyrimidin-5-yl)-3-(5-(3-((R)-1,2,3,4-tetrahydro-1,8-naphthyridin-2-yl)propyl)-1H-pyrazol-1-yl)propanoic acid], for which the IC50 is 1030 nM.
`COc1ccc(C(CC(=O)O)c2nc(CCCc3ccc4c(n3)NCCC4)co2)cc1F` (stereo not drawn) [Example 178, 3-(3-fluoro-4-methoxyphenyl)-3-(4-(3-(5,6,7,8-tetrahydro-1,8-naphthyridin-2-yl)propyl)oxazol-2-yl)propanoic acid]: the IC50 amounted to 1.4 nM.
